In article PMC8161390, “Salinity Alters Toxicity of Commonly Used Pesticides in a Model Euryhaline Fish Species (Menidia beryllina)” (Toxics, 2021):
In brackets after ≈: the same amount, converted by molar mass. Like-named read-outs stand apart in the source and are kept apart here.

Key:
[1] = Inland Silverside embryo-to-larva 12-day exposure bioassay (mortality, dose-response); conditions: Menidia beryllina (Inland Silverside), in vivo, <24 hpf embryos to 96 hph larvae, nominal concentrations
Method: (§1) Inland Silverside embryos were removed from the spawning substrate, assessed for fertilization with a VWR VistaVision Dissecting Scope (VWR International, Radnor, PA, USA), and randomly placed in exposure wells with 1 mL of clean artificial seawater (ASW) made from reverse osmosis water and Instant Ocean Sea Salt (Spectrum Brands, Blacksburg, VA, USA). Once all well plates (Supplemental Material and Video S1) were loaded, each test was initiated by pouring the appropriate exposure solution into the well plate until embryos were submerged in 8 mL of exposure solution. Organisms were exposed from <24 h post fertilization (hpf) as embryos to 96 h post hatch (hph) larvae for a total exposure period of 12 days. […] After hatching, fish larvae, which still had their yolk sacs, were fed Gemma Microdiet (Skretting, Westbrook, ME, USA) once per day and were allowed to feed for at least two hours prior to water changes. […] Temperature, pH, salinity, and dissolved oxygen were measured daily before and after water changes using a YSI Professional Plus Quatro water quality meter (YSI Incorporated, Yellow Springs, OH, USA) and API Ammonia Test Kit and can be found in Table S1.
(§2) This suite of chosen contaminants represents commonly used pesticides with a range of log KOW values, water solubilities, and target organs. Six concentrations (Table 1), including a solvent control, were assessed per test to determine the appropriate dose–response relationships. Initial test concentrations were determined from existing mortality data from the United State EPA ECOTOX database. Where testing on saltwater species was not available, freshwater data were used to supplement. […] The fourth concentration was selected based off existing mortality data and increased by one magnitude to the fifth concentration to ensure mortality. All lower concentrations were decreased by one subsequent magnitude to ensure an appropriate dose response could be achieved.
(§3) Chemical stock solutions were made at the start of each test from which new exposure solutions were made daily in ASW immediately prior to water changes. There were six replicates per concentration and two organisms per replicate. […] At the end of the exposure period, the final survival data were recorded, and larval fish were humanely sacrificed. Exposures were approved and conducted under the Oregon State University Institutional Animal Care and Use Committee (IACUC) protocol #0035.
(§4) Statistical analysis was conducted in R version 4.0 (Vienna, Austria) and R Studio version 1.3.1093 (Boston, MA, US). The dose–response analysis consisted of fitting two-parameter log-logistic models to all seven compounds at both salinities (14 fits in total) using maximum likelihood optimization in the package drc version 3.0-1 [42]. […] In the Monte Carlo procedure, the salinity treatments for all of the replicates in the dataset were permuted (keeping the sample sizes for each salinity the same), then new dose–response curves were fit to each salinity treatment. The p-value testing whether the observed difference in LC10 and LC50 values was greater than that expected by random chance was calculated as the proportion of Monte Carlo simulations in which the difference in LC values was greater than the original observed difference. […] All values are reported as the mean ± standard error. All statistical analysis and dose–response curves were made and reported with nominal concentrations.

[2] = tested on: Inland Silverside (Menidia beryllina); test: as above; conditions: <24 hpf embryos to 96 hph larvae, 12 days, nominal concentrations; for 5 PSU LC10: 5 PSU salinity; for 15 PSU LC10: 15 PSU salinity
Method: as §1, §2, §3, §4

[3] = cited from earlier work
[4] = parameters: method as in earlier work; conditions: cited from earlier work
[5] = tested on: Rainbow Trout (Oncorhynchus mykiss); conditions: freshwater; 96-h acute; range of minimum to maximum reported LC50 values; ref U.S. EPA ECOTOX database; cited from earlier work
[6] = parameters: method as in PMID 18829159; conditions: reported environmental persistence; cited from earlier work
[7] = irradiation of a 300 W mercury bulb, cited from earlier work

SMILES	LC50 at 12 days ([1]; 5 PSU LC50, 5 PSU salinity) [ng/mL]	LC50 at 12 days ([1]; 15 PSU LC50, 15 PSU salinity) [ng/mL]	5 PSU LC10 [2] [ng/mL]	15 PSU LC10 [2] [ng/mL]	log KOW [3]	Water Solubility [4] [µg/mL]	FW LC50 [5] [ng/mL]	environmental half-life [6]	half-life ([7]; distilled water) [h]	half-life ([7]; seawater) [h]	log KOW ([3]; values quoted in discussion of Delta smelt study)
Cc1c(COC(=O)[C@@H]2[C@H](/C=C(\Cl)C(F)(F)F)C2(C)C)cccc1-c1ccccc1 (racemic) [Bifenthrin, bifenthrin]	0.16 (≈ 0.000378 µM)	0.12 (≈ 0.000284 µM)	0.0227	0.00533	6.6	0.1	0.15 to 14.7				
CCOP(=S)(OCC)Oc1nc(Cl)c(Cl)cc1Cl [Chlorpyrifos, chlorpyrifos]	8.03 (≈ 0.0229 µM)	2.4 (≈ 0.00685 µM)	0.137	0.0393	4.7		<1 to 301				
Nc1c(Cl)cc([N+](=O)[O-])cc1Cl [Dicloran, dicloran]					2.8	6.3					
CCCCC(C#N)(Cn1cncn1)c1ccc(Cl)cc1 (centres unmarked) [Myclobutanil, myclobutanil]	3760 (≈ 13 µM)	1550 (≈ 5.37 µM)			2.8	132	4200 to 5270				
C[n+]1ccc(-c2cc[n+](C)cc2)cc1 [Paraquat, paraquat dichloride hydrate]	37500	18100	54.7	24.5	−4.5	620000	15000 to 38680	around two			
CCCC(Cn1cncn1)c1ccc(Cl)cc1Cl (centres unmarked) [Penconazole, penconazole]	107 (≈ 0.377 µM)	20.2 (≈ 0.0711 µM)	0.235	0.0244	3.7						
CC(C)(C)C(=O)C(Oc1ccc(Cl)cc1)n1cncn1 (centres unmarked) [Triadimefon, triadimefon]					3.2	64			0.9	2.97	
CC1(C)C(C=C(Cl)Cl)C1C(=O)OCc1cccc(Oc2ccccc2)c1 (centres unmarked) [permethrin]											6.9
